Here are results for ten compounds from patent US20250152567A1, “COMPOUNDS FOR USE IN THE TREATMENT OF DYSTROPHINOPATHIES” (SOM INNOVATION BIOTECH, S.A., priority 2022, published 2025).

SMILES strings stand for the structures. Counter-ions that a name gives are not always drawn.

One assay relates to utrophin-A expression. The experiment in a line: Utrophin upregulation in mdx^5cv myotubes (qRT-PCR for utrophin-A expression). It is filed as cell-based. Conditions: Mus musculus, Myotube, 72 h, 3 days, RT-PCR, read-out: Utrophin upregulation (average of fold change utrophin vs DMSO ± sem). As for the experimental part:
Isolation of satellite cell-derived primary myoblasts was performed via cell-surface antibodies and magnetic separation as previously described, and cultured for their expansion (Motohashi et al., J Vis Exp. 2014 Apr. 8; (86): 50846). Briefly, after collagenase (Worthington, CLS-2) treatment, dissociated cells from mdx^5cv mouse hindlimb muscle were incubated with anti-CD31 monoclonal antibody conjugated to phycoerythrin (eBioscience, 12-0311), anti-CD45 monoclonal antibody conjugated to phycoerythrin (eBioscience, 30-F11), anti-Scal monoclonal antibody conjugated to phycoerythrin (eBioscience, Dec-81) and anti-Integrin a7 (MBL International, ABIN487462), followed by anti-PE microbeads (Miltenyi Biotec, 130-048-801), and then performed LD column (Miltenyi Biotec, 130-042-901) separation. Negative cell populations were incubated with anti-Mouse IgG beads (Miltenyi Biotec, 130-048-402), and then MS column (Miltenyi Biotec, 130-042-201) separation was performed to isolate Integrin a7 (+) satellite cells. Satellite cell-derived mdx^5cv myoblasts were maintained in culture on collagen coated plates in myoblast medium containing 20% FBS and 20 ng/ml bFGF (Invitrogen, PHG0263) in HAM's-F10 medium. Cell cultures were maintained in a humidified incubator at 37° C. with 5% CO2 and 5% 02. The mdx^5cv myoblasts were induced to differentiate into multinucleated myotubes after low serum conditions (DMEM supplemented with 5% horse serum).
Halofuginone was obtained from Selleck. Veliflapon and cloricromen HCl were obtained from Sigma. Fabomotizole HCl was obtained from MedChemExpress. Difenpiramide was obtained from Enamine. Amopyroquine and alpelisib were obtained from Carbosynth. Benorilate and xipamide were obtained from Fluorochem. Altizide was obtained from Toronto Research Chemicals. All chemical compounds were dissolved with 100% DMSO to adjust to 10 mM stock solutions.
Every day compounds were added to mdx^5cv myotubes at different concentrations (0.01 to 10 μM) by replacement of the differentiation medium. After 3 days compound exposure, cells were harvested for RNA preparation by TRIzol reagent (15596026, ThermoFisher Scientific). Isolated RNA was used for cDNA synthesis using the Transcriptor First Strand cDNA synthesis kit (04379012001, Roche Molecular Diagnostics) using random primers. Diluted DMSO solution was used as a negative control vehicle. qRT-PCR assay for utrophin-A expression was performed using the following primers: Utro-F1 (Forward) 5′-[…]-3′ (SEQ ID NO: 1) and Utro-R1 (Reverse) 5′-[…]-3′ (SEQ ID NO: 2). 18S rRNA was used as an internal control, with the following primers: 18S-F1 (Forward) 5′-[…]-3′ (SEQ ID NO: 3) and 18S-R1 (Reverse) 5′-[…]-3′ (SEQ ID NO: 4). qPCR was performed using GoTaq qPCR Master Mix (A6001, Promega). All primers were synthesized as custom DNA oligos from Integrated DNA technologies (IDT). Analysis was done using the ACt method. Statistical analysis was performed with at least three independent experiments with between 2 and 4 replicates in each experiment.
The chemical compounds were tested in mdx^5cv myotubes at different concentrations for 3 days. Halofuginone was used as a positive control for the utrophin up-regulation.
A general note: Real-time PCR tracks product formation cycle by cycle.

The subject of assay [1] is DMD patient-derived 3D skeletal muscle tissues. As to the kind of experiment: Force of muscle contraction in response to electrical pulse stimulation in human 3D skeletal muscle tissues. It is filed as cell-based. Conditions: 10 μM; for tetanic index (maximal tetanic specific force / maximal twitch specific force): 2 days (FIG. 3); for maximal twitch contractile force in response to electrical stimulation / tetanic contractile force in response to electrical stimulation: 2 days; for maximal twitch contractile force in response to electrical stimulation: 1 Hz EPS, compared with DMSO treated cells (FIG. 1); for tetanic contractile force in response to electrical stimulation: 50 Hz EPS, compared with DMSO treated cells (FIG. 2). As for the experimental part:
Fabrication of Human 3D Skeletal Muscle Tissues and Treatment Human 3D skeletal muscle tissues were fabricated using polydimethylsiloxane (PDMS; Sylgard 184 silicone elastomer kit, Dow Corning) casting molds developed and fabricated as described in Fernández-Costa et al. 2022. Briefly, the casting molds design consists of a square-shaped pool, where the cells/hydrogel solution is seeded, and two vertical, flexible PDMS pillars. PDMS casting molds were prepared for muscle cell culture by first cleaning them by sonication on water with soap, 2-propanol, and Mili-Q water and sterilized with UV light for 15 min. It was followed by 1 h treatment with 1% Plurionic® F-127 (Sigma-Aldrich) solution in cold PBS (100 μl/well) at 4° C. Human 3D skeletal muscle tissues were generated using Immortalized human muscle satellite cells (iHuMSCs) from a DMD patient (DMD 2, clone G82) (Massenet et al. 2020). iHuMSCs were cultured in growth medium (skeletal muscle basal medium (PromoCell GmbH), skeletal muscle supplemental mix (PromoCell GmbH), 10% Fetal Bovine Serum (FBS) (Gibco™), 100 U/mL penicillin and 100 μg/ml streptomycin (Gibco™)). iHuMSCs were released from culture flasks via mild trypsinization. Cells were encapsulated at 2.5×10^7 cells/ml in a cell/hydrogel mixture of 30% v/v Corning® Matrigel® Growth Factor Reduced (GFR) Basement Membrane Matrix (Corning®), 2 units of thrombin from human plasma (Sigma-Aldrich) and 4 mg/mL of fibrinogen from human plasma (50% v/v) (Sigma-Aldrich). 35 μl was pipetted within each PDMS casting mold using cool tips to avoid premature polymerization.
The cell/hydrogel mixture was polymerized for 30 min at 37° C. followed by incubation in growth medium containing 1 mg/mL of 6-aminocaproic acid (ACA) (Sigma-Aldrich). ACA works as an antifibrinolytic, which avoids fibrin depolymerization. They were kept in growth media for two days and then switched to differentiation medium (Dulbecco's Modified Eagle Medium, high glucose, GlutaMAX™ Supplement (Gibco™), containing 1% KnockOut™ Serum replacement (Gibco™), 1% Insulin-Transferrin-Selenium-Ethanolamine (Gibco™) and 1% Penicillin-Streptomycin-Glutamine (Gibco™)) containing 1 mg/mL of ACA for seven days. Half of the volume of differentiation medium was replaced every two days. After five days of differentiation, the medium was replaced by differentiation medium with the drugs at 10 μM and 0.01% DMSO final concentration. The treatment was kept for 48 hours.
Human 3D skeletal muscle tissues were electrically stimulated after seven days of differentiation to induce muscle contraction. A custom-made device consisted of a 12-well plate with two graphite electrodes per well located on the lid was used to perform the EPS. PDMS casting molds were placed on a 12-well plate with fresh differentiation medium. The plate was placed on a Zeiss Axio Observer Z1/7 outfitted with the XL S1 cell incubator at 37° C. and 5% CO2. The device was connected to a pulse generator (Multifunction Generator WF1974, NF Corporation), and tissues were stimulated with electrical square-wave pulses of 1 V/mm, 1 ms of pulse width, and frequencies varying from 1 to 50 Hz. The contractibility in response of EPS of 1 Hz of frequency was evaluated to study twitch contraction dynamics. On the other hand, 50 Hz of frequency was applied to induce tetanic contractions.
Videos of the movement of the pillar of the casting molds in response to the muscle contractions were taken with a ZEISS Axio Observer Z1/7 microscope. Cross-sectional area and location of the tissues on the axis of the pillars were also recorded during the assay. Videos were analyzed using a custom-made Python script and the specific force performed from the tissues was calculated applying […] together with the calculated displacement of the pillar as done in Mestre et al. 2018. Tetanic index was calculated as the ratio between the maximal tetanic specific force divided by the maximal twitch specific force. […]

For the compound `Cc1cccc(C)c1NC(=O)c1cc(S(N)(=O)=O)c(Cl)cc1O` [Xipamide], in the assay with utrophin-A expression, the fold induction at 0.1 µM was 1.25 ± 0.18, the fold induction at 1 µM turned out to be 1.05 ± 0.17 and the fold induction at 10 µM is 1.18 ± 0.1.
In the same order, the values of `CC(=O)Nc1ccc(OC(=O)c2ccccc2OC(C)=O)cc1` [Benorilate] are 1.16 ± 0.12, 1.04 ± 0.16 and 1.58 ± 0.29.
Regarding `Oc1ccc(Nc2ccnc3cc(Cl)ccc23)cc1CN1CCCC1` [Amopyroquine], in the assay on utrophin-A expression, the fold induction at 0.1 µM worked out at 1.23 ± 0.11, the fold induction at 1 µM came out at 1.1 ± 0.14 and the fold induction at 10 µM was 1.23 ± 0.37.
Consider `O=C(CC1NCCCC1O)Cn1cnc2cc(Br)c(Cl)cc2c1=O` (stereo not drawn) [Halofuginone], for which, in the assay on utrophin-A expression, the fold induction at 0.1 µM was found to be 1.44 ± 0.37, the fold induction at 1 µM was 1.24 ± 0.1 and the fold induction at 10 µM came to 1.3 ± 0.04.
As for `CCOC(=O)COc1ccc2c(C)c(CCN(CC)CC)c(=O)oc2c1Cl` [Cloricromen hydrochloride, Cloricromen], in the assay with utrophin-A expression, the fold induction at 0.1 µM stood at 1.06 ± 0.19, the fold induction at 1 µM was found to be 1.07 ± 0.22 and the fold induction at 10 µM was found to be 1.34 ± 0.13.
In the case of `O=C(O)[C@@H](c1ccc(OCc2ccc3ccccc3n2)cc1)C1CCCC1` [Veliflapon], in the assay on utrophin-A expression, the fold induction at 0.1 µM came out at 1.43 ± 0.24, the fold induction at 1 µM amounted to 1.35 ± 0.02 and the fold induction at 10 µM was 1.05 ± 0.15. Further, in assay [1], the “tetanic index (maximal tetanic specific force / maximal twitch specific force)” value is “significant increase”, the “maximal twitch contractile force in response to electrical stimulation” value is listed as “increase” and the “tetanic contractile force in response to electrical stimulation” value is given as “increase”.
As to `C=CCSCC1Nc2cc(Cl)c(S(N)(=O)=O)cc2S(=O)(=O)N1` (stereo not drawn) [Altizide], in the assay on utrophin-A expression, the fold induction at 0.1 µM was 1.09 ± 0.07, the fold induction at 1 µM came to 1.33 ± 0.09 and the fold induction at 10 µM was 1.33 ± 0.09.
Regarding `Cc1nc(NC(=O)N2CCC[C@H]2C(N)=O)sc1-c1ccnc(C(C)(C)C(F)(F)F)c1` [Alpelisib], in the assay with utrophin-A expression, the fold induction at 0.1 µM worked out at 1.08 ± 0.09, the fold induction at 1 µM was determined as 1.45 ± 0.11 and the fold induction at 10 µM came out at 1.4 ± 0.13.
With `O=C(Cc1ccc(-c2ccccc2)cc1)Nc1ccccn1` [Difenpiramide], in the assay with utrophin-A expression, the fold induction at 0.1 µM came to 1.24 ± 0.13, the fold induction at 1 µM came to 1.1 ± 0.21 and the fold induction at 10 µM stood at 1.23 ± 0.21. Also, in assay [1], the “tetanic index (maximal tetanic specific force / maximal twitch specific force)” value is on record as “significant increase”, the “maximal twitch contractile force in response to electrical stimulation” value was “increase” and the “tetanic contractile force in response to electrical stimulation” value is listed as “increase”.
Regarding `CCOc1ccc2[nH]c(SCCN3CCOCC3)nc2c1` [Fabomotizole hydrochloride, Fabomotizole], in the assay with utrophin-A expression, the fold induction at 0.1 µM was found to be 1.34 ± 0.07, the fold induction at 1 µM is 1.04 ± 0.1 and the fold induction at 10 µM turned out to be 1.34 ± 0.19.
